According to patent publication US5922319A, “Methods of treating eye conditions with human leukocyte elastase (HLE) inhibitory agents” (University of Kentucky Research Foundation, priority 1989, dated 1999):

Test system: rabbit corneas thermally burned (corneal scarring, fibroblast proliferation, neovascularization)
Assay: Thermal corneal burn in rabbit eyes, topical eye drops for two weeks, blind histopathology (H&E)
Type: in vivo
Method: 26 rabbits were tranquilized with acetylpromazine maleate, 16 mg/kg intramuscularly. 2% lidocaine HCl eye drops were instilled in each eye for corneal anesthesia. Once the corneas were anesthetized, an eyelid speculum was inserted and the lids were then separated. The corneas of each eye were thermally coagulated with the tip of a battery-powered ophthalmic cautery. […] Two drops of solution A, B or C were instilled in designated treated eyes every 15 min for 6 hrs., then every 2 hrs. for 12 hrs. Following this, two eye drops of the same solutions were instilled four times a day. Daily eye examination was performed and photographs were taken. Two weeks after treatment the rabbits were sacrificed by […] intracardiac injection of T-61 ([…]). Subsequently, the rabbits, eyeballs were enucleated, the globes placed in Bounri's solution (10% formalin solution) and submitted for histopathology cell analysis. The eyes were fixed with 10% formalin solution and labeled right (R) and left (L), as appropriate sectioned and stained with H & E (hematoxylin & eosin stains). Histological sections were read by a pathologist without knowledge of the previously undertaken experimental procedure (blind test).

`COC(=O)CCC(=O)N[C@@H](C)C(=O)N[C@@H](CCCCNC(=O)OCc1ccccc1)C(=O)N1CCC[C@H]1C(=O)CN(C(=O)Sc1nnnn1-c1ccccc1)C(C)C` [Compound 2, S-(1-phenyl-5-tetrazoyl)-N-[methoxysuccinyl-alanyl-(Nε -Carbobenzoxy)lysylprolylmethyl]-N-isopropyl-thiocarbamate] was tested, and the “Microscopic description of rabbit eyes: intensity of the reaction compared with the untreated specimen” value (Solution B, 10 μg/ml in normal saline with 1.4% w/v polyvinyl alcohol, eye drops, two weeks after corneal burn) was “The reaction is not quite as intense”, the “Protection against scarring due to corneal burns (magnitude)” value (Solution C, 50 μg/ml, versus untreated eyes) was “tenfold” and the “Overall effect of ophthalmic solutions on fibrosis, neovascularization and inflammation in corneal wound-healing” value (ophthalmic solutions B or C, rabbit corneal burn) was “effective in reducing fibrosis, neovascularization and inflammation”.
